{"source": "patent US4430335A", "about": "(priority 1983, dated 1984)", "test_system": "mice", "design": "species or system mice (male, CD-1)", "conditions": "mouse, in vivo", "data": [{"smiles": "CCC(=O)O[C@](Cc1ccccc1)(c1ccccc1)[C@H](C)CN(C)C", "note": "[propoxyphine]", "values": [{"measurement": "Dose Subcutaneously (sc) [*= ED50 ], 50 % Inhibition of phenylquinone writhing", "value": 3.4}]}]}
